Experimental data from PubChem BioAssay AID1963826 (Molecular Pharmacology Branch, DTP, NCI, 2024).
“And” between values parts separate entries of the source, which are not always exact repeats. Equal entries are not always repeated.

Test system: 926638-142-R-J1-PDC complex spheroid viability
Test: Anticancer human tumor 926638-142-R-J1-PDC patient-derived endometrial carcinoma cell line growth inhibition [POLQ]
Conditions: for viability, T/C: stronger effect = lower value
Method: Multicellular complex tumor spheroid response to Polymerase (POL) inhibitors (novobiocin, ART-558, RP6685) in combination with a variety of drugs and investigational agents in selected tumor cell lines
The POL inhibitors (novobiocin, ART-558, and RP6685) were evaluated both individually and in combination with standard of care and investigational anticancer small molecules within a complex spheroid model of solid tumors. . Complex spheroids include a stromal component modeled by human endothelial cells (HUVEC) and fibroblasts modeled by human mesenchymal stem cells (MSCs). The concentration ranges selected for each drug and investigational agent were based upon clinically achievable concentrations if the clinical Cmax of the agent was known.
Compounds. The drugs and investigational agents: novobiocin (NSC847541), ART-558 (NSC835418), RP-6685 (NSC848927), peposertib (NSC802822), ceralasertib (NSC780249), elimusertib (NSC800525), camonsertib (NSC841442), AZD-1390 (NSC803789), olaparib (NSC753686), talazoparib (NSC767125), rucaparib (NSC756644), sotorasib (NSC818433), MRTX-1133 (NSC836407), SN-38 (NSC673596), topotecan (NSC609699), epotoside (NSC141540), doxorubicin (NSC123127), gemcitabine (NSC613327), 5-fluorouracil (NSC19893), paclitaxel (NSC125973), vemurafenib (NSC761431), MSA-2 (NSC828583), SN-011 (NSC837082), adavosertib (NSC754352), prexasertib (NSC758257), carboplatin (NSC241240) and oxaliplatin (NSC266046), were obtained from the National Cancer Institute (NCI) Developmental Therapeutics Program Chemical Repository (21). The FDA-approved anticancer drug set is available from the Developmental Therapeutics Program at https://dtp.cancer.gov/organization/dscb/obtaining/. […] The stock solutions were prepared in dimethyl sulfoxide (DMSO, Sigma-Aldrich, St. Louis, MO, cat. D2650), except for the platinum compounds which were prepared in saline (Quality Biological, Gaithersburg, MD, cat. 114-055-101), at 800-fold the tested concentration and stored at -70 degrees C prior to their use. All drugs and investigational agents were tested over a range starting from a high concentration at or near the clinical Cmax and decreasing in half-log increments. If the clinical Cmax for an agent had not been determined, the highest concentration tested was 10 microM, except for SN-38, which was tested at a high concentration of 1 microM.
Cell Culture. All cells were maintained in an incubator at 37 degrees C and 5% CO2 with 95% humidity. The PDC lines were cultured according to standard operating procedures established by the NCI PDMR (https://pdmr.cancer.gov). Table 3 of the manuscript, lists the cell lines along with the number of the three cell types plated to form the mct-spheroids and media for tumor cell growth. After thawing, all PDC lines, except 997537-175-T-J1-PDC and 415267-285-R-J2-PDC, were cultured in Matrigel-coated flasks prepared with a working solution of 1X Ham's F-12 nutrient mix, without supplementation (Thermo Fisher Scientific, cat. 11765054), 100 U/mL penicillin-streptomycin (Thermo Fisher Scientific, cat. 15140122), and 2.5% Matrigel (Corning Inc., Corning, NY, cat. 354248) for the first three passages. The two PDC lines 997537-175-T-J1-PDC and 415267-285-R-J2-PDC were cultured on uncoated flasks. The 857933-349-R-J2-PDC line was cultured in 6C/Colon 1B media containing advanced DMEM/F-12 (Thermo Fisher Scientific, cat. 12634028), 10 mM HEPES (Thermo Fisher Scientific, cat. 15630080), 1X GlutaMAX supplement (Thermo Fisher Scientific, cat. 35050061), 0.1 mg/mL primocin (InvivoGen, San Diego, CA, cat. ant-pm-2), 10% defined fetal bovine serum, heat inactivated (HyClone Laboratories Inc., Logan, UT, cat. SH30070.03HI), 50% L-WRN conditioned media (ATCC, cat. CRL-3276), 1.25 mM N-Acetyl-L-cysteine (Sigma-Aldrich, cat. A9165), 10 mM nicotinamide (Sigma-Aldrich, cat. N0636), 1X B-27 supplement (Thermo Fisher Scientific, cat. 17504044), 1X N-2 supplement (Thermo Fisher Scientific, cat. […]
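Also: spheroids exposed to drugs for one week before readout.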
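For viability, T/C in this document: percent viability relative to DMSO vehicle control wells set as 100%.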

Row | Structure (SMILES) | viability, T/C (compound 0.00316 µM) | viability, T/C (compound 0.01 µM) | viability, T/C (compound 0.0316 µM) | viability, T/C (compound 0.1 µM) | viability, T/C (compound 0.316 µM) | viability, T/C (compound 1 µM) | IC50 (curve of compound) | viability, T/C (compound 0.00949 µM) | viability, T/C (compound 0.03 µM) | viability, T/C (compound 0.0949 µM) | viability, T/C (compound 0.3 µM) | viability, T/C (compound 0.949 µM) | viability, T/C (compound 3 µM) | viability, T/C (compound 3.16 µM) | viability, T/C (compound 10 µM) | viability, T/C (compound 0.000316 µM) | viability, T/C (compound 0.001 µM) | IC50 (compound alone, run of 01/19/2024)
1 | C=CCn1c(=O)c2cnc(Nc3ccc(N4CCN(C)CC4)cc3)nc2n1-c1cccc(C(C)(C)O)n1 | 85% and 93.8% and 95.4% | 80.4% and 77.2% and 83.5% | 99.2% and 71.9% and 92.3% | 95.8% and 78.3% and 77% | 47.6% and 50.2% and 49% | 36.5% and 43.9% and 48.2% | 296 nM and 541 nM and 300 nM | – | – | – | – | – | – | – | – | – | – | –
2 | CC(=O)O[C@H]1C(=O)[C@@]2(C)[C@H]([C@H](OC(=O)c3ccccc3)[C@]3(O)C[C@H](OC(=O)[C@H](O)[C@@H](NC(=O)c4ccccc4)c4ccccc4)C(C)=C1C3(C)C)[C@]1(OC(C)=O)CO[C@@H]1C[C@@H]2O | – | – | – | – | – | – | > 3000 nM | 82.5% and 94% and 68.4% | 63.2% and 60.2% and 77.5% | 57.1% and 53.2% and 62.2% | 55% and 53.9% and 68.9% | 61.5% and 52.6% and 56% | 44.7% and 45.7% and 57.5% | – | – | – | – | –
3 | CC1COCCN1c1cc(-c2ccnn2C)c2ccnc(-c3ccn[nH]3)c2n1 (configuration not stated) | – | – | 83.5% and 103% and 85.4% | 79.7% and 81.4% and 63.6% | 55.4% and 57.6% and 51.2% | 31.7% and 36.2% and 33% | 435 nM and 450 nM and 287 nM | – | – | – | – | – | – | 13.4% and 11.8% and 14.9% | 6.95% and 8.69% and 9.29% | – | – | –
4 | CC1COCCN1c1cc(C2(S(C)(=N)=O)CC2)nc(-c2ccnc3[nH]ccc23)n1 (configuration not stated) | – | – | 103% and 96.2% and 125% | 100% and 97.9% and 87.2% | 94.2% and 87.3% and 90% | 88.5% and 93.7% and 95% | 5380 nM and 6230 nM and 5460 nM | – | – | – | – | – | – | 64.7% and 71.3% and 62.5% | 32.1% and 35.3% and 33.8% | – | – | –
5 | CCCS(=O)(=O)Nc1ccc(F)c(C(=O)c2c[nH]c3ncc(-c4ccc(Cl)cc4)cc23)c1F | – | – | 104% and 88.4% and 90.9% | 107% and 99.6% and 92.5% | 96.6% and 97% and 86% | 98.3% and 106% and 94.4% | > 10000 nM and 9030 nM | – | – | – | – | – | – | 88.2% and 76.9% and 82% | 50.4% and 47.4% and 51.5% | – | – | –
6 | CC[C@@]1(O)C(=O)OCc2c1cc1n(c2=O)Cc2cc3c(CN(C)C)c(O)ccc3nc2-1 | 86.8% and 84.1% and 78.3% | 72.1% and 81.6% and 70.2% | 68.5% and 73.5% and 62% | 43.1% and 49% and 41.8% | – | – | 72.3 nM and > 100 nM and 63.1 nM | – | – | – | – | – | – | – | – | 92.4% and 102% and 103% | 87.4% and 90.6% and 84.2% | –
7 | CCc1c2c(nc3ccc(O)cc13)-c1cc3c(c(=O)n1C2)COC(=O)[C@]3(O)CC | 65.4% and 62.4% and 71.3% | 46.9% and 39.7% and 51.1% | 39% and 39.6% and 38.6% | 24.9% and 26.6% and 21% | 10.9% and 16.3% and 8.99% | 4.17% and 12.3% and 5.58% | 10 nM and 7.31 nM and 12.5 nM | – | – | – | – | – | – | – | – | – | – | –
8 | CNCc1ccc(-c2[nH]c3cc(F)cc4c3c2CCNC4=O)cc1 | – | – | 93.7% and 109% and 101% | 89.6% and 97.2% and 79.2% | 92.8% (2×) and 87.7% | 77.7% and 97.3% and 82.6% | > 10000 nM | – | – | – | – | – | – | 86.7% and 87.1% and 95.7% | 78% and 80.2% and 84.1% | – | – | –
9 | COc1cc(C2c3cc4c(cc3C(OC3OC5COC(C)OC5C(O)C3O)C3COC(=O)C23)OCO4)cc(OC)c1O (configuration not stated) | – | – | 97.6% and 99% and 86.2% | 79.6% (2×) and 77.2% | 63.6% and 68.3% and 88.5% | 67.9% and 82.5% and 80.7% | > 10000 nM | – | – | – | – | – | – | 66.8% and 64.7% and 65.7% | 65.4% and 55.2% and 55.3% | – | – | –
10 | COc1ccc([C@@H](O)c2cc(-c3ncnc4cc(N5CCOCC5)ccc34)c(F)cc2Cl)nn1 | – | – | 89.7% and 92.5% and 103% | 89.2% and 79.2% and 80.3% | 58.8% and 72.4% and 64.8% | 29.3% and 35.7% and 36.9% | 466 nM and 635 nM and 606 nM | – | – | – | – | – | – | 13.2% and 18.7% and 16.1% | 8.76% and 11.7% and 5.8% | – | – | –
11 | COc1cccc(OCCCN)c1-c1cc(Nc2cnc(C#N)cn2)n[nH]1 | 93.2% and 79.9% and 100% | 77.4% and 82.9% and 82.8% | 60.4% and 55.2% and 58.4% | 55.1% and 55.9% and 59.1% | 52% and 40.5% and 39.7% | 26.3% and 36.1% and 36.3% | 150 nM and 108 nM and 130 nM | – | – | – | – | – | – | – | – | – | – | –
12 | COc1cccc2c1C(=O)c1c(O)c3c(c(O)c1C2=O)CC(O)(C(=O)CO)CC3OC1CC(N)C(O)C(C)O1 (configuration not stated) | – | – | 77.2% and 83% and 80.9% | 57.6% and 62.2% and 59.7% | 17.8% and 23.1% and 18.7% | 3.79% and 5.62% and 2.27% | 124 nM and 143 nM and 131 nM | – | – | – | – | – | – | 0.22% and 0.29% and 0.23% | 0.25% and 0.29% and 0.23% | – | – | –
13 | Cn1ncnc1[C@H]1c2n[nH]c(=O)c3cc(F)cc(c23)N[C@@H]1c1ccc(F)cc1 | 76.9% and 94.5% and 82.1% | 89.5% and 92.3% and 85.3% | 86.7% and 70% and 82.3% | 67% and 72.8% and 67.5% | – | – | > 100 nM | – | – | – | – | – | – | – | – | 89.5% and 93.8% and 99.4% | 85.5% and 91.6% and 86% | –
14 | Nc1ccc(C#CCN(C(=O)Cc2ncc(C(F)(F)F)cc2C(F)(F)F)c2ccc(F)cc2)nn1 | – | – | 101% [middle of 13 runs] | 101% [middle of 13 runs] | – | 97.2% [middle of 13 runs] | – | – | – | – | – | – | – | – | 99.8% [middle of 13 runs] | – | – | > 10000 nM
15 | Nc1ccn(C2OC(CO)C(O)C2(F)F)c(=O)n1 (configuration not stated) | – | – | 69.5% and 96.5% and 88.2% | 66% and 60.7% and 62% | 54.2% and 57.4% and 60.7% | 52.6% and 52.3% and 53.2% | 1100 nM and 577 nM and 974 nM | – | – | – | – | – | – | 43.8% and 41.2% and 44% | 30.5% and 27.8% and 24.4% | – | – | –
16 | O=C(c1cc(Cc2n[nH]c(=O)c3ccccc23)ccc1F)N1CCN(C(=O)C2CC2)CC1 | – | – | 88.8% and 70.9% and 97% | 85.3% and 91.2% and 85.1% | 86.5% and 105% and 91.6% | 88.9% and 104% and 100% | > 10000 nM | – | – | – | – | – | – | 85% and 76.3% and 79.9% | 70.9% and 87.5% and 73% | – | – | –
17 | O=c1[nH]cc(F)c(=O)[nH]1 | – | – | 109% and 99.3% and 86.3% | 101% and 89.2% and 108% | 92% (2×) and 87.6% | 89% and 95.6% and 93% | > 10000 nM | – | – | – | – | – | – | 84.3% and 86% and 78.8% | 75% and 88% and 80% | – | – | –
